Data from patent US20230242585A1, “IMMUNOMODULATORS” (Bristol-Myers Squibb Company, priority 2020, published 2023).
pIC50: −log10 of the molar value. Starred links: 1 amine or outer side, 2 acyl side, 3 side chain; linkers in the order of their positions; H or OH if unused. Positions of bridges follow the written chain, without caps; N, C: chain ends. Non-standard residues stand in square brackets, D forms with d. Residues, ends and D or L forms follow the SMILES beside them. X34 = O=C([C@H](CCNC[C@H](O)[C@@H](O)[C@@H](O)CO)N[*:1])[*:2]; X33 = O=C([C@H](CNC[C@H](O)[C@@H](O)[C@@H](O)CO)N[*:1])[*:2]; X26 = O=C([C@H](CCNC[C@H](O)[C@H](O)[C@H](O)CO)N[*:1])[*:2]; X7 = O=C([C@H](CNC[C@H](O)[C@H](O)[C@H](O)CO)N[*:1])[*:2]; Trp(1-CH2COOH) = N[C@@H](Cc1cn(CC(=O)O)c2ccccc12)C(=O)O; X21 = O=C([C@H](CCNCc1c2ccccc2nc2ccccc12)N[*:1])[*:2]; X55 = O=C([C@H](CCNCc1cccc2ccc3ccccc3c12)N[*:1])[*:2]; X10 = O=C([C@H](CNCc1c2ccccc2nc2ccccc12)N[*:1])[*:2]; X12 = O=C([C@H](CNCc1cccc2ccc3ccccc3c12)N[*:1])[*:2]; X36 = COc1cc2cccc(OC)c2cc1CNC[C@H](N[*:1])C(=O)[*:2]; X13 = O=C([C@H](CNCc1cccc2[nH]ccc12)N[*:1])[*:2]; X16 = O=C([C@H](CCNCC(O)C(O)C(O)CO)N[*:1])[*:2]; X15 = O=C([C@H](CNCC(O)C(O)C(O)CO)N[*:1])[*:2]; X17 = O=C([C@H](CNCc1cncc2ccccc12)N[*:1])[*:2]; X20 = O=C([C@H](CNCc1nccc2ccccc12)N[*:1])[*:2]; X61 = O=C([C@H](CCNCc1ccccc1O)N[*:1])[*:2]; X60 = O=C([C@H](CNCc1ccccc1O)N[*:1])[*:2]; Hyp = O=C(O)[C@@H]1C[C@@H](O)CN1; NMeNle = CCCC[C@H](NC)C(=O)O; NMeA = CN[C@@H](C)C(=O)O; Dab = NCC[C@H](N)C(=O)O

Target: T1, PD-1/PD-L1 (Homo sapiens, UniProt Q9NZQ7)
T1 construct: TVMV protease site (linker) (C); made in house; host or cells: HEK293T cells
Assay: PD-1/PD-L1 Homogenous Time-Resolved Fluorescence (HTRF) binding assay
Settings: PD-L1-His 10 nM, PD-1-Ig 20 nM
Description: The ability of the compounds of formula (I) to bind to PD-L1 was investigated using a PD-1/PD-L1 Homogenous Time-Resolved Fluorescence (HTRF) binding assay.
The interaction of PD-1 and PD-L1 can be assessed using soluble, purified preparations of the extracellular domains of the two proteins. The PD-1 and PD-L1 protein extracellular domains were expressed as fusion proteins with detection tags, for PD-1, the tag was the Fc portion of Immunoglobulin (PD-1-Ig) and for PD-L1 it was the 6 histidine motif (PD-L1-His). All binding studies were performed in an HTRF assay buffer consisting of dPBS supplemented with 0.1% […] bovine serum albumin and 0.05% (v/v) Tween-20. For the h/PD-L1-His binding assay, inhibitors were pre-incubated with PD-L1-His (10 nM final) for 15 m in 4 µl of assay buffer, followed by addition of PD-1-Ig (20 nM final) in 1 µl of assay buffer and further incubation for 15 m. HTRF detection was achieved using europium crypate-labeled anti-Ig (1 nM final) and allophycocyanin (APC) labeled anti-His (20 nM final). Antibodies were diluted in HTRF detection buffer and 5 µl was dispensed on top of the binding reaction. The reaction mixture was allowed to equilibrate for 30 minutes and the resulting signal (665 nm/620 nm ratio) was obtained using an EnVision fluorometer. Additional binding assays were established between the human proteins PD-1-Ig/PD-L2-His (20 & 5 nM, respectively) and CD80-His/PD-L1-Ig (100 & 10 nM, respectively).
Recombinant Proteins: Human PD-1 (25-167) with a C-terminal human Fc domain of immunoglobulin G (Ig) epitope tag [hPD-1 (25-167)-3S-IG] and human PD-L1 (18-239) with a C-terminal His epitope tag [hPD-L1(18-239)-TVMV-His] were expressed in HEK293T cells and purified sequentially by ProteinA affinity chromatography and size exclusion chromatography. Human PD-L2-His and CD80-His was obtained through commercial sources.
Table 1 lists the IC50 values for representative examples of this disclosure measured in the PD-1/PD-L1 Homogenous Time-Resolved Fluorescence (HTRF) binding assay.

T1 sequence (Q9NZQ7 18-239): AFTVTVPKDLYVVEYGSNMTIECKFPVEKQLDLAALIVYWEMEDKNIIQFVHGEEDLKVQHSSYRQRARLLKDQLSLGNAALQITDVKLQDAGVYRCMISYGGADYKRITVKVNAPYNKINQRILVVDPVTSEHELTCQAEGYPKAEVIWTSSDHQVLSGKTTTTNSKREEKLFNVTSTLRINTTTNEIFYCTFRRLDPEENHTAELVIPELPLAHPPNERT

| SMILES | pIC50 |
| --- | --- |
| CCCC[C@H]1C(=O)N(C)[C@@H](CCCC)C(=O)N[C@@H](CC(C)C)C(=O)N[C@H](C(=O)NCC(N)=O)CSCC(=O)N[C@@H](Cc2ccc(O)cc2)C(=O)N(C)[C@@H](C)C(=O)N[C@@H](CC(N)=O)C(=O)N2CCC[C@H]2C(=O)N[C@@H](CNCc2cccc3[nH]ccc23)C(=O)N[C@@H](CC(C)C)C(=O)N2C[C@H](O)C[C@H]2C(=O)N[C@@H](Cc2c[nH]c3ccccc23)C(=O)N[C@@H](CCN)C(=O)N[C@@H](Cc2cn(CC(=O)O)c3ccccc23)C(=O)N1C [Example 1015] ({CH2CO}-Y[NMeA]NP[X13]L[Hyp]W[Dab][Trp(1-CH2COOH)][NMeNle][NMeNle]LCG-NH2; thioether N-14) | 8.29 |
| CCCC[C@H]1C(=O)N(C)[C@@H](CCCC)C(=O)N[C@@H](CC(C)C)C(=O)N[C@H](C(=O)NCC(N)=O)CSCC(=O)N[C@@H](Cc2ccc(O)cc2)C(=O)N(C)[C@@H](C)C(=O)N[C@@H](CC(N)=O)C(=O)N2CCC[C@H]2C(=O)N[C@@H](CNCc2cc3c(OC)cccc3cc2OC)C(=O)N[C@@H](CC(C)C)C(=O)N2C[C@H](O)C[C@H]2C(=O)N[C@@H](Cc2c[nH]c3ccccc23)C(=O)N[C@@H](CCN)C(=O)N[C@@H](Cc2cn(CC(=O)O)c3ccccc23)C(=O)N1C [Example 1016] ({CH2CO}-Y[NMeA]NP[X36]L[Hyp]W[Dab][Trp(1-CH2COOH)][NMeNle][NMeNle]LCG-NH2; thioether N-14) | 8.19 |
| CCCC[C@H]1C(=O)N(C)[C@@H](CCCC)C(=O)N[C@@H](CC(C)C)C(=O)N[C@H](C(=O)NCC(N)=O)CSCC(=O)N[C@@H](Cc2ccc(O)cc2)C(=O)N(C)[C@@H](C)C(=O)N[C@@H](CC(N)=O)C(=O)N2CCC[C@H]2C(=O)N[C@@H](CNCc2nccc3ccccc23)C(=O)N[C@@H](CC(C)C)C(=O)N2C[C@H](O)C[C@H]2C(=O)N[C@@H](Cc2c[nH]c3ccccc23)C(=O)N[C@@H](CCN)C(=O)N[C@@H](Cc2cn(CC(=O)O)c3ccccc23)C(=O)N1C [Example 1018] ({CH2CO}-Y[NMeA]NP[X20]L[Hyp]W[Dab][Trp(1-CH2COOH)][NMeNle][NMeNle]LCG-NH2; thioether N-14) | 8.08 |
| CCCC[C@H]1C(=O)N(C)[C@@H](CCCC)C(=O)N[C@@H](CC(C)C)C(=O)N[C@H](C(=O)NCC(N)=O)CSCC(=O)N[C@@H](Cc2ccc(O)cc2)C(=O)N(C)[C@@H](C)C(=O)N[C@@H](CC(N)=O)C(=O)N2CCC[C@H]2C(=O)N[C@@H](CNCc2cncc3ccccc23)C(=O)N[C@@H](CC(C)C)C(=O)N2C[C@H](O)C[C@H]2C(=O)N[C@@H](Cc2c[nH]c3ccccc23)C(=O)N[C@@H](CCN)C(=O)N[C@@H](Cc2cn(CC(=O)O)c3ccccc23)C(=O)N1C [Example 1019] ({CH2CO}-Y[NMeA]NP[X17]L[Hyp]W[Dab][Trp(1-CH2COOH)][NMeNle][NMeNle]LCG-NH2; thioether N-14) | 8.10 |
| CCCC[C@H]1C(=O)N(C)[C@@H](CCCC)C(=O)N[C@@H](CC(C)C)C(=O)N[C@H](C(=O)NCC(N)=O)CSCC(=O)N[C@@H](Cc2ccc(O)cc2)C(=O)N(C)[C@@H](C)C(=O)N[C@@H](CC(N)=O)C(=O)N2CCC[C@H]2C(=O)N[C@@H](CNCc2cccc3ccc4ccccc4c23)C(=O)N[C@@H](CC(C)C)C(=O)N2C[C@H](O)C[C@H]2C(=O)N[C@@H](Cc2c[nH]c3ccccc23)C(=O)N[C@@H](CCNCc2cccc3ccc4ccccc4c23)C(=O)N[C@@H](Cc2cn(CC(=O)O)c3ccccc23)C(=O)N1C [Example 1022] ({CH2CO}-Y[NMeA]NP[X12]L[Hyp]W[X55][Trp(1-CH2COOH)][NMeNle][NMeNle]LCG-NH2; thioether N-14) | 5.85 |

Further lines, results first:

| pIC50 | SMILES |
| --- | --- |
| 8.00 | CCCC[C@H]1C(=O)N(C)[C@@H](CCCC)C(=O)N[C@@H](CC(C)C)C(=O)N[C@H](C(=O)NCC(N)=O)CSCC(=O)N[C@@H](Cc2ccc(O)cc2)C(=O)N(C)[C@@H](C)C(=O)N[C@@H](CC(N)=O)C(=O)N2CCC[C@H]2C(=O)N[C@@H](CNCc2c3ccccc3nc3ccccc23)C(=O)N[C@@H](CC(C)C)C(=O)N2C[C@H](O)C[C@H]2C(=O)N[C@@H](Cc2c[nH]c3ccccc23)C(=O)N[C@@H](CCNCc2c3ccccc3nc3ccccc23)C(=O)N[C@@H](Cc2cn(CC(=O)O)c3ccccc23)C(=O)N1C [Example 1020] ({CH2CO}-Y[NMeA]NP[X10]L[Hyp]W[X21][Trp(1-CH2COOH)][NMeNle][NMeNle]LCG-NH2; thioether N-14) |
| 8.12 | CCCC[C@H]1C(=O)N(C)[C@@H](CCCC)C(=O)N[C@@H](CC(C)C)C(=O)N[C@H](C(=O)NCC(N)=O)CSCC(=O)N[C@@H](Cc2ccc(O)cc2)C(=O)N(C)[C@@H](C)C(=O)N[C@@H](CC(N)=O)C(=O)N2CCC[C@H]2C(=O)N[C@@H](CNCc2ccccc2O)C(=O)N[C@@H](CC(C)C)C(=O)N2C[C@H](O)C[C@H]2C(=O)N[C@@H](Cc2c[nH]c3ccccc23)C(=O)N[C@@H](CCNCc2ccccc2O)C(=O)N[C@@H](Cc2cn(CC(=O)O)c3ccccc23)C(=O)N1C [Example 1021] ({CH2CO}-Y[NMeA]NP[X60]L[Hyp]W[X61][Trp(1-CH2COOH)][NMeNle][NMeNle]LCG-NH2; thioether N-14) |
| 8.11 | CCCC[C@H]1C(=O)N(C)[C@@H](CCCC)C(=O)N[C@@H](CC(C)C)C(=O)N[C@H](C(=O)NCC(N)=O)CSCC(=O)N[C@@H](Cc2ccc(O)cc2)C(=O)N(C)[C@@H](C)C(=O)N[C@@H](CC(N)=O)C(=O)N2CCC[C@H]2C(=O)N[C@@H](CNCC(O)C(O)C(O)CO)C(=O)N[C@@H](CC(C)C)C(=O)N2C[C@H](O)C[C@H]2C(=O)N[C@@H](Cc2c[nH]c3ccccc23)C(=O)N[C@@H](CCNCC(O)C(O)C(O)CO)C(=O)N[C@@H](Cc2cn(CC(=O)O)c3ccccc23)C(=O)N1C (stereo partly drawn) [Example 2001] ({CH2CO}-Y[NMeA]NP[X15]L[Hyp]W[X16][Trp(1-CH2COOH)][NMeNle][NMeNle]LCG-NH2; thioether N-14) |
| 8.30 | CCCC[C@H]1C(=O)N(C)[C@@H](CCCC)C(=O)N[C@@H](CC(C)C)C(=O)N[C@H](C(=O)NCC(N)=O)CSCC(=O)N[C@@H](Cc2ccc(O)cc2)C(=O)N(C)[C@@H](C)C(=O)N[C@@H](CC(N)=O)C(=O)N2CCC[C@H]2C(=O)N[C@@H](CNC[C@H](O)[C@@H](O)[C@@H](O)CO)C(=O)N[C@@H](CC(C)C)C(=O)N2C[C@H](O)C[C@H]2C(=O)N[C@@H](Cc2c[nH]c3ccccc23)C(=O)N[C@@H](CCN)C(=O)N[C@@H](Cc2cn(CC(=O)O)c3ccccc23)C(=O)N1C [Example 2002] ({CH2CO}-Y[NMeA]NP[X33]L[Hyp]W[Dab][Trp(1-CH2COOH)][NMeNle][NMeNle]LCG-NH2; thioether N-14) |
| 8.00 | CCCC[C@H]1C(=O)N(C)[C@@H](CCCC)C(=O)N[C@@H](CC(C)C)C(=O)N[C@H](C(=O)NCC(N)=O)CSCC(=O)N[C@@H](Cc2ccc(O)cc2)C(=O)N(C)[C@@H](C)C(=O)N[C@@H](CC(N)=O)C(=O)N2CCC[C@H]2C(=O)N[C@@H](CNC[C@H](O)[C@H](O)[C@H](O)CO)C(=O)N[C@@H](CC(C)C)C(=O)N2C[C@H](O)C[C@H]2C(=O)N[C@@H](Cc2c[nH]c3ccccc23)C(=O)N[C@@H](CCNC[C@H](O)[C@H](O)[C@H](O)CO)C(=O)N[C@@H](Cc2cn(CC(=O)O)c3ccccc23)C(=O)N1C [Example 2003] ({CH2CO}-Y[NMeA]NP[X7]L[Hyp]W[X26][Trp(1-CH2COOH)][NMeNle][NMeNle]LCG-NH2; thioether N-14) |
| 8.17 | CCCC[C@H]1C(=O)N(C)[C@@H](CCCC)C(=O)N[C@@H](CC(C)C)C(=O)N[C@H](C(=O)NCC(N)=O)CSCC(=O)N[C@@H](Cc2ccc(O)cc2)C(=O)N(C)[C@@H](C)C(=O)N[C@@H](CC(N)=O)C(=O)N2CCC[C@H]2C(=O)N[C@@H](CNC[C@H](O)[C@@H](O)[C@@H](O)CO)C(=O)N[C@@H](CC(C)C)C(=O)N2C[C@H](O)C[C@H]2C(=O)N[C@@H](Cc2c[nH]c3ccccc23)C(=O)N[C@@H](CCNC[C@H](O)[C@@H](O)[C@@H](O)CO)C(=O)N[C@@H](Cc2cn(CC(=O)O)c3ccccc23)C(=O)N1C [Example 2004] ({CH2CO}-Y[NMeA]NP[X33]L[Hyp]W[X34][Trp(1-CH2COOH)][NMeNle][NMeNle]LCG-NH2; thioether N-14) |
| 7.92 | CCCC[C@H]1C(=O)N(C)[C@@H](CCCC)C(=O)N[C@@H](CC(C)C)C(=O)N[C@H](C(=O)NCC(N)=O)CSCC(=O)N[C@@H](Cc2ccc(O)cc2)C(=O)N(C)[C@@H](C)C(=O)N[C@@H](CC(N)=O)C(=O)N2CCC[C@H]2C(=O)N[C@@H](CNC[C@H](O)[C@H](O)[C@H](O)CO)C(=O)N[C@@H](CC(C)C)C(=O)N2C[C@H](O)C[C@H]2C(=O)N[C@@H](Cc2c[nH]c3ccccc23)C(=O)N[C@@H](CCN)C(=O)N[C@@H](Cc2cn(CC(=O)O)c3ccccc23)C(=O)N1C [Example 2006] ({CH2CO}-Y[NMeA]NP[X7]L[Hyp]W[Dab][Trp(1-CH2COOH)][NMeNle][NMeNle]LCG-NH2; thioether N-14) |
